# Where two headings read alike, the source gives them in different places.
# Key:
# [1] = test system: B16 melanoma cells; test: Melanogenesis inhibition test; assay type: cell-based; conditions: for IC50: Mus musculus; for Melanogenesis inhibition rate (%, vs control): 72 hours culture, melanin per protein
# Experimental: B16 melanoma cells were plated at 10^4 cells/well in a MEM medium containing 10 vol % fetal bovine serum in a 12-well plate and were precultured for 24 hours. After the preculture, the medium was replaced with a medium obtained by adding a predetermined concentration of the sample compound to the above medium to which is added 2 mmol/L of theophylline, and culture was carried out for 72 hours. […] Further, the cells were dissolved in a 1 mol/L aqueous sodium hydroxide solution containing 10 vol % dimethyl sulfoxide. The OD475 was measured and the value was used as an indicator of the amount of melanin. Thereafter, the amount of total protein in the solution was determined using Coomasie Plus Protein Assay Reagent Kit (manufactured by PIERCE) to calculate the amount of melanin per amount of protein. The melanogenesis inhibition rate (%) relative to a control was determined with a case where the sample compound was not added as the control.
# Melanogenesis inhibition curves of the monoacetyl and diacetyl derivatives of propylbiphenol of Preparation Example 1 according to the present invention were made based on the results of the melanogenesis inhibition test (FIGS. 6 and 7). IC50 values, which is the concentration values supposed to inhibit 50% of melanogenesis, were determined from the inhibition curves.
# [2] = Solubility test in water or organic solvent; assay type: physicochemical; conditions: room temperature, visually observed; for Solubility in Ethyl acetate: 0.1 g sample in 1 ml ethyl acetate; for solubility: thermodynamic from solid
# Experimental: 0.1 g of each sample was weighed and 1 ml of water or an organic solvent was accurately added thereto. After agitating the mixture with a test tube mixer (VORTEX), it was allowed to stand at room temperature and the state was visually observed. Solubility was evaluated as “o”, when a sample was completely dissolved. Solubility was evaluated as “Δ”, when a sample was approximately half dissolved. Solubility was evaluated as “x”, when a sample was almost not dissolved. Propylbiphenol that was a starting material for each Preparation Example was also evaluated as Comparative Example 1.
# [3] = B16, determined from melanogenesis inhibition curves, read-out: IC50 value (concentration supposed to inhibit 50% of melanogenesis)
# [4] = addition concentration 10 μg/ml
# [5] = 0.1 g sample in 1 ml water, read-out: Solubility in Water
"IC50 [1, 3]",Solubility in Ethyl acetate [2],Solubility in Methanol ([2]; 0.1 g sample in 1 ml methanol),Solubility in n-hexane ([2]; 0.1 g sample in 1 ml n-hexane),"solubility [2, 5]",Structure (SMILES),"Melanogenesis inhibition rate (%, vs control) ([1]; addition concentration 1 μg/ml)","Melanogenesis inhibition rate (%, vs control) ([1]; addition concentration 3 μg/ml)","Melanogenesis inhibition rate (%, vs control) [1, 4]","IC50 ([1]; B16, read-out: IC50 value (concentration supposed to inhibit 50% of melanogenesis))","solubility ([2]; organic solvent or mixture, 0.1 g sample in 1 ml methanol, read-out: Solubility in Methanol)","solubility ([2]; organic solvent or mixture, 0.1 g sample in 1 ml n-hexane, read-out: Solubility in n-hexane)","Melanogenesis inhibition rate (%, vs control) ([1]; addition concentration 30 μg/ml)"
7 µg/mL,∘,∘,∘,< 25 mg/mL,CCCc1ccc(O)c(-c2cc(CCC)ccc2OC(C)=O)c1 [Monoacetyl derivative],−11.6%,−9.8%,100%,–,–,–,–
–,∘,∘,∘,< 25 mg/mL,CCCc1ccc(OC(=O)CC)c(-c2cc(CCC)ccc2OC(=O)CC)c1 [Dipropionyl derivative],–,–,–,–,–,–,–
20 µg/mL,–,–,–,–,"OC[C@H]1O[C@@H](Oc2ccc(O)cc2)[C@H](O)[C@@H](O)[C@@H]1O [arbutin, reference compound]",–,–,–,–,–,–,–
6.5 µg/mL,∘,∘,∘,< 25 mg/mL,CCCc1ccc(OC(C)=O)c(-c2cc(CCC)ccc2OC(C)=O)c1 [Diacetyl derivative],−15.5%,−16.6%,72.0%,–,–,–,83.8%
–,∘,∘,∘,< 25 mg/mL,CCCCCCCC(=O)Oc1ccc(CCC)cc1-c1cc(CCC)ccc1O [Monooctanoyl derivative],–,–,–,–,–,–,–

Structure (SMILES),"IC50 [1, 3]",Solubility in Ethyl acetate [2],Solubility in Methanol ([2]; 0.1 g sample in 1 ml methanol),Solubility in n-hexane ([2]; 0.1 g sample in 1 ml n-hexane),"solubility [2, 5]","Melanogenesis inhibition rate (%, vs control) ([1]; addition concentration 1 μg/ml)","Melanogenesis inhibition rate (%, vs control) ([1]; addition concentration 3 μg/ml)","Melanogenesis inhibition rate (%, vs control) [1, 4]","IC50 ([1]; B16, read-out: IC50 value (concentration supposed to inhibit 50% of melanogenesis))","solubility ([2]; organic solvent or mixture, 0.1 g sample in 1 ml methanol, read-out: Solubility in Methanol)","solubility ([2]; organic solvent or mixture, 0.1 g sample in 1 ml n-hexane, read-out: Solubility in n-hexane)","Melanogenesis inhibition rate (%, vs control) ([1]; addition concentration 30 μg/ml)"
"CCCc1ccc(O)c(-c2cc(CCC)ccc2O)c1 [Propylbiphenol, 2,2′-dihydroxy-5,5′-di-n-propyl-biphenyl, reference compound]",–,∘,–,–,< 25 mg/mL,–,–,–,4 µg/mL,25 to 100 mg/mL,< 25 mg/mL,–
